Measured values reported in patent US20220268760A1, “ATRIAL CARDIAC MICROTISSUES FOR CHAMBER-SPECIFIC ARRHYTHMOGENIC TOXICITY RESPONSES” (Brown University, priority 2021, published 2022).

What was measured:
[1] = system: 3D atrial microtissues (hiPSC-atrial cardiomyocytes with 5% human cardiac fibroblasts); experiment: Optical mapping of action potentials of 3D atrial microtissues under 1 Hz pacing; assay type: cell-based; conditions: for APD30 / APD50 / APD80 / APDMxR / APDTri/APDMxR / Rise Time: mean ± SD
Protocol: (§1) 3D microtissue generation. Sterile 2% (wt/vol) agarose in PBS were pipetted into 35-microwell molds with hemispherical bottoms (FIG. 1C; 3D Petri Dish®, MicroTissues Inc., see MilliporeSigma, St. Louis, Mo., USA). After casted, hydrogels equilibrated in RPMI/B27 media with 1% Pen/Strep overnight in an incubator. Lactate-purified hiPSC-cardiomyocytes were then harvested, singularized, and suspended in RPMI/B27 media with 10% FBS and 1% Pen/Strep, collecting a subset of the cells for flow cytometry analysis of cTnT and MLC2v expression. […] Cells were allowed to settle into the cylindrical recesses for 30 minutes before adding media supplemented with 5 μM ROCK Inhibitor. Culture medium was changed one day post-seeding and replaced every other day. Self-assembling, spheroidal, and scaffold-free 3D microtissues were electrically field stimulated for six-eight days with a 1 Hz, 10.0 V, and 4.0 milliseconds duration bipolar pulse train (C-Pace EP, IonOptix, Westwood, Mass., USA) to precondition the microtissues before optical mapping. […] et al., Proc. Natl. Acad. Sci., U.S.A., 101, 18129-18134 (2004). The 3D microtissues beat synchronously with 1 Hz stimulation within two days, and tissue compaction were observed within three days post-seeding. Optical mapping of cardiac action potential. The inventors transferred hydrogels containing microtissues to a Petri dish on a temperature-controlled chamber (Dual Automatic Temperature Controller TC-344B, Warner Instrument, Hamden, Conn., USA) to maintain ambient temperatures of 35±1° C. throughout imaging. Microtissues were gently perfused in a solution containing (in mM) 140 NaCl, 5.1 KCl, 1 MgCl2, 1 CaCL2, 0.33 NaH2PO4, 5 HEPES, and 7.5 glucose warmed with an inline heater. Microtissues were allowed to equilibrate in the perfusion solution for thirty minutes and subsequently labeled with a voltage-sensitive dye (5 μM di-4-ANEPPS) for five minutes to enable membrane potential (Vm) recordings of action potential. Excess residual dyes were washed out thoroughly before data collection. An active-pixel sensor (CMOS sensor) camera acquired fluorescence images at 1000 frames-per-second, and action potential traces were reconstructed from fluorescence intensity data. Semi-automated analyses of action potential parameters were conducted using an in-house analysis software and included rise time, […] to maximum repolarization rate ([…]), and APD triangulation ([…]). Screening of arrhythmogenic compounds. […] Three molds of microtissues (two atrial cardiomyocytes and one ventricular cardiomyocytes) were used to test the compound 4-aminopyridine under 1 Hz electrical stimulation with a platinum field electrode (Myopacer EP field stimulator, IonOptix, Westwood, Mass., USA). […] At each dose, the microtissues were allowed to respond to the drug for five-ten minutes before action potential recordings were acquired. At least ten seconds of data were acquired per microtissue at each dose. Instead, three molds of atrial microtissues were used to test the compound ivabradine without electrical stimulation to investigate how action potential properties and spontaneous activity were altered in response to the drug.

[2] = system: 3D ventricular microtissues (hiPSC-ventricular cardiomyocytes with 5% human cardiac fibroblasts); experiment: Optical mapping of action potentials of 3D ventricular microtissues under 1 Hz pacing; assay type: cell-based; conditions: for APD30 / APD50 / APD80 / APDTri/APDMxR / Rise Time / APDMxR: mean ± SD
Protocol: as §1

[3] = system: 3D atrial microtissues (spontaneous activity, If channel); experiment: Spontaneous action potential activity of atrial microtissues without electrical stimulation; assay type: cell-based, human
Protocol: 3D microtissue generation. Sterile 2% (wt/vol) agarose in PBS were pipetted into 35-microwell molds with hemispherical bottoms (FIG. 1C; 3D Petri Dish®, MicroTissues Inc., see MilliporeSigma, St. Louis, Mo., USA). After casted, hydrogels equilibrated in RPMI/B27 media with 1% Pen/Strep overnight in an incubator. Lactate-purified hiPSC-cardiomyocytes were then harvested, singularized, and suspended in RPMI/B27 media with 10% FBS and 1% Pen/Strep, collecting a subset of the cells for flow cytometry analysis of cTnT and MLC2v expression. […] Cells were allowed to settle into the cylindrical recesses for 30 minutes before adding media supplemented with 5 μM ROCK Inhibitor. Culture medium was changed one day post-seeding and replaced every other day. Self-assembling, spheroidal, and scaffold-free 3D microtissues were electrically field stimulated for six-eight days with a 1 Hz, 10.0 V, and 4.0 milliseconds duration bipolar pulse train (C-Pace EP, IonOptix, Westwood, Mass., USA) to precondition the microtissues before optical mapping. […] et al., Proc. Natl. Acad. Sci., U.S.A., 101, 18129-18134 (2004). The 3D microtissues beat synchronously with 1 Hz stimulation within two days, and tissue compaction were observed within three days post-seeding. Optical mapping of cardiac action potential. The inventors transferred hydrogels containing microtissues to a Petri dish on a temperature-controlled chamber (Dual Automatic Temperature Controller TC-344B, Warner Instrument, Hamden, Conn., USA) to maintain ambient temperatures of 35±1° C. throughout imaging. Microtissues were gently perfused in a solution containing (in mM) 140 NaCl, 5.1 KCl, 1 MgCl2, 1 CaCL2, 0.33 NaH2PO4, 5 HEPES, and 7.5 glucose warmed with an inline heater. Microtissues were allowed to equilibrate in the perfusion solution for thirty minutes and subsequently labeled with a voltage-sensitive dye (5 μM di-4-ANEPPS) for five minutes to enable membrane potential (Vm) recordings of action potential. Excess residual dyes were washed out thoroughly before data collection. An active-pixel sensor (CMOS sensor) camera acquired fluorescence images at 1000 frames-per-second, and action potential traces were reconstructed from fluorescence intensity data. Semi-automated analyses of action potential parameters were conducted using an in-house analysis software and included rise time, […] to maximum repolarization rate ([…]), and APD triangulation ([…]). Screening of arrhythmogenic compounds. […] Three molds of microtissues (two atrial cardiomyocytes and one ventricular cardiomyocytes) were used to test the compound 4-aminopyridine under 1 Hz electrical stimulation with a platinum field electrode (Myopacer EP field stimulator, IonOptix, Westwood, Mass., USA). […]

[4] = system: hiPSC-derived cardiomyocytes (MLC2v); experiment: Flow cytometry of MLC2v expression in hiPSC-cardiomyocytes; assay type: cell-based, human; conditions: supplementation at days 3-6 of differentiation; without it 31±0.2, p<0.05; in % (unit assumed)
Protocol: Cardiomyocyte differentiation. The inventors differentiated atrial and ventricular cardiomyocytes ([…] ) from GCaMP6f-expressing human induced pluripotent stem cells (hiPSCs; WTC human iPSCs, Gladstone Institutes, San Francisco, Calif., USA) using small molecule modulations of Wnt signaling, as described previously by Burridge et al., Nature Methods, 11, 855-860 (2014), with slight modifications. hiPSCs were cultured on vitronectin coated plates in Essential 8 Medium (E8 media; Thermo Fisher Scientific, Waltham, Calif., USA). Before starting differentiation, hiPSCs were singularized, seeded onto Matrigel-coated plates in E8 media with 5 μM ROCK Inhibitor (RI; Thermo Fisher Scientific, Waltham, Calif., USA) and cultured to 80% confluency, at which point the cells were treated with 4.5 μM CHIR 99021 (Tocris Bioscience, Minneapolis, Minn., USA), a glycogen synthase kinase 3 (GSK3) inhibitor, for 24±1 hours in chemically defined medium CDM3 basal medium (RPMI 1640 Thermo Fisher Scientific, Waltham, Mass., USA) supplemented with L-ascorbic acid and human serum albumin). […] Samples were run on a BD FACSAriaTM Illu Flow Cytometer (BD Biosciences, San Jose, Calif.), and data were analyzed with FlowJo (BD Biosciences, San Jose, Calif.).

Nc1ccncc1 [4-Aminopyridine]
APD30 ([1]; 1 μM): 75.2 ± 11.4 ms | APD50 ([1]; 1 μM): 95.7 ± 12.9 ms | APD80 ([1]; 1 μM): 121.4 ± 16.2 ms | APDMxR ([1]; 1 μM): 126.6 ± 15.8 ms | APDTri/APDMxR ([1]; 1 μM): 0.24 ± 0.03 | Rise Time ([1]; 1 μM, n=3 batches): 11.9 ± 2.6 ms | APD30 ([1]; 3 μM): 75.2 ± 11.4 ms | APD50 ([1]; 3 μM): 97.5 ± 11.4 ms | APD80 ([1]; 3 μM): 123.5 ± 14.7 ms | APDMxR ([1]; 3 μM): 128.3 ± 12.9 ms | APDTri/APDMxR ([1]; 3 μM): 0.24 ± 0.03 | Rise Time ([1]; 3 μM): 11.8 ± 2.2 ms | Change of rise time and APDTri (in words) ([1]; 100 μM): significant increase | APD30 ([1]; 100 μM): 84.0 ± 10.6 ms | APD50 ([1]; 100 μM): 104.8 ± 12.0 ms | APD80 ([1]; 100 μM): 129.9 ± 15.9 ms | APDMxR ([1]; 100 μM): 136.6 ± 14.6 ms | APDTri/APDMxR ([1]; 100 μM): 0.23 ± 0.03 | Rise Time ([1]; 100 μM): 14.0 ± 3.7 ms | Change of APD30, APD50, APD80 and APDMxR (in words) ([1]; increasing doses (1, 3, 100 μM)): significantly prolonged | APD30 ([2]; 1 μM): 244.6 ± 38.4 ms | APD50 ([2]; 1 μM): 287.8 ± 49.9 ms | APD80 ([2]; 1 μM): 329.6 ± 50.6 ms | APDTri/APDMxR ([2]; 1 μM): 0.09 ± 0.01′ | Rise Time ([2]; 1 μM): 6.9 ± 1.9 ms | APD30 ([2]; 3 μM): 233.3 ± 35.8 ms | APD50 ([2]; 3 μM): 275.7 ± 47.7 ms | APD80 ([2]; 3 μM): 321.6 ± 54.1 ms | APDMxR ([2]; 3 μM): 307.5 ± 55.2 ms | APDTri/APDMxR ([2]; 3 μM): 0.10 ± 0.02 | Rise Time ([2]; 3 μM): 7.1 ± 2.4 ms | APD30 ([2]; 100 μM): 236.7 ± 32.5 ms | APD50 ([2]; 100 μM): 280.0 ± 44.0 ms | APD80 ([2]; 100 μM): 325.6 ± 48.5 ms | APDMxR ([2]; 100 μM): 312.5 ± 51.7 ms | APDTri/APDMxR ([2]; 100 μM): 0.10 ± 0.02 | Rise Time ([2]; 100 μM): 7.5 ± 2.6 ms | Change of APD30, APD50, APD80 and APDMxR (in words) ([2]; all dosages): No significant changes

COc1cc2c(cc1OC)CC(=O)N(CCCN(C)C[C@H]1Cc3cc(OC)c(OC)cc31)CC2 [Ivabradine]
Effect on spontaneous activity (share of microtissues, in words) ([3]; atrial microtissues, 1 μM, no electrical stimulation): eliminate spontaneous activity in more than half of the atrial microtissues | Effect on spontaneous action potential events (in words) ([3]; atrial microtissues, all tested dosages): significantly reduced spontaneous action potential events | Effect on spontaneous activity (in words) ([3]; atrial microtissues, higher dosages): loss of spontaneous activity | Voltage trace events (in words) ([3]; small subset of spontaneous atrial microtissues, 5 μM, recovered with 1 Hz pacing): events resembling failed depolarization

CC1=C(/C=C/C(C)=C/C=C/C(C)=C/C(=O)O)C(C)(C)CCC1 [Retinoic acid]
MLC2v+ expression of cardiomyocytes [4]: 18±5
